Patent US9394290B2, “Selective CYP11B1 inhibitors for the treatment of cortisol dependent diseases” (UNIVERSITAET DES SAARLANDES CAMPUS SAARBRUECKEN, priority 2010, dated 2016)
pIC50: −log10 of the molar value.

Columns and labels:
human CYP17 = human CYP17 (Homo sapiens (Human), UniProt P05093); test: CYP17 inhibition assay (membrane fraction of E. coli expressing human CYP17, substrate progesterone); assay type: biochemical; conditions: 25 μM, inhibitor concentration 2.0 μM; for inhibition at 2 µM: read-out: inhibition (%) CYP 17
Experimental: Recombinant E. coli pJL17/OR coexpressing human CYP17 and rat NADPH-P450-reductase were grown and stored as described by Ehmer et al. (J. Steroid Biochem. Mol. Biol., 2000, 75, 57-63)
For isolation of membrane fractions, 5 ml of bacterial suspension with an OD578 of 50 were washed using phosphate buffer (0.05 M, pH 7.4, 1 mM MgCl2, 0.1 mM EDTA and 0.1 mM dithiothreitol). Bacteria were harvested by centrifugation (2000×g) and the pellet was resuspended in 10 ml ice-cold TES buffer (0.1 M tris-acetate, pH 7.8, 0.5 mM EDTA, 0.5 M sucrose). Lysozyme was added with 10 ml of ice-cold water resulting in a concentration of 0.2 mg/ml followed by incubation for 30 min on ice with continuous shaking. Spheroplasts were harvested by centrifugation (12000×g, 10 min), and resuspended in 4 ml of ice-cold phosphate buffer (the same as described above plus 0.5 mM phenylmethylsulfonylfluoride (PMSF)).
After that spheroplasts were sonicated on ice (pulse 20 s on, 30 s off, five times), using a sonicator Sonopuls HD60 (Bandelin, Berlin, Germany) at maximum power. Unbroken cells and debris were pelleted at 3000×g for 7 min, and the supernatant was centrifuged at 50000×g for 20 min at 4° C. The membrane pellet was resuspended in 2 ml of phosphate buffer (the same as described above) with 20% glycerol using an ultra-turrax T25 (IKA-Labortechnik, Staufen, Germany). Protein concentration was determined by the method of Lowry.
The assay was performed as follows: a solution of 6.25 nmol progesterone (in 5 μl methanol) in 140 μl phosphate buffer (0.05 M, pH 7.4, 1 mM MgCl2, 0.1 mM EDTA and 0.1 mM dithiothreitol), 50 μl NADPH generating system (in phosphate buffer with 10 mM NADP, 100 mM glucose-6-phosphate and 2.5 units of glucose-6-phosphate-dehydrogenase) and inhibitor (in 5 μl DMSO) was pre-incubated at 37° C. for 5 min. Control cups were supplemented with 5 μl DMSO without inhibitor. The reaction was started by adding 50 μl of a 1:5 diluted membrane suspension in phosphate buffer (0.8-1.0 mg protein per ml). The maximum DMSO concentration in each sample was 2%. After mixing, incubation was performed for 30 min at 37° C. Subsequently the reaction was stopped with 50 μl 1 N HCl.
Extraction of the steroids was performed by addition of 1.0 ml ethyl acetate and vigorous shaking for 1 min. After a centrifugation step (5 min, 2500×g) the organic phase (0.9 ml) was transferred into a fresh cup containing 0.25 ml of incubation buffer and 50 μl 1 N HCl and mixed again. After centrifugation, 0.8 ml ethyl acetate solution was evaporated to dryness in a fresh cup. After that the steroids were redissolved in solvent for HPLC analysis (Hutschenreuter et. al. J. Enz. Inhib. Med. Chem. 2004, 19, 17-32).
The above experiment was conducted at least three times and a mean value for the CYP17 inhibition calculated.

Human placental CYP19 = Human placental CYP19 (Homo sapiens (Human), UniProt P11511); test: CYP19 (aromatase) assay, human placental microsomes, 3H2O release; assay type: biochemical; conditions: substrate androstenedione, 500 nM, inhibitor concentration 500 nM; for inhibition at 0.5 µM: read-out: inhibition (%) CYP 19
Experimental: The enzyme was obtained from the microsomal fraction of freshly delivered human term placental tissue according to the procedure of Thompson and Siiteri (Thompson, E. A.; Siiteri, P. K. J. Biol. Chem. 1974, 249, 5364).
The isolated microsomes were suspended in a minimum volume of phosphate buffer (0.05 M, pH 7.4, 20% glycerol). Additionally, DTT (dithiothreitol, 10 mM) and EDTA (1 mM) were added to protect the enzyme from degradation. The enzyme preparation was stored at −70° C.
The assay was performed monitoring enzyme activity by measuring the ^3H2O formed from [1β-^3H]androstenedione during aromatization (Hartmann et al. J. Med. Chem. 1986, 29, 1362-1369). […] The test compounds were dissolved in DMSO and diluted with buffer. The final DMSO concentration in the control and inhibitor incubation was 2%. Each tube was pre-incubated for 5 min at 30° C. in a water bath. Microsomal protein was added to start the reaction (0.1 mg). The total volume for each incubation was 0.25 ml. The reaction was terminated by the addition of 200 μl of a cold 1 mM HgCl2 solution. After addition of 200 μl of an aqueous dextran-coated charcoal (DCC) suspension (2%), the vials were shaken for 20 min and centrifuged at 1500×g for 5 min to separate the charcoal-absorbed steroids. The supernatant was assayed for ^3H2O by counting in a scintillation mixture using a β-counter. The calculation of the IC50 values was performed by plotting the percent inhibition vs. the concentration of inhibitor on a semi-log plot.
The above experiment was conducted at least three times and a mean value for the CYP19 inhibition calculated.

human CYP11B1 = human CYP11B1 (Homo sapiens (Human), UniProt P15538); test: Cellular assay for CYP11B1 inhibition (V79MZh11B1 hamster fibroblasts, substrate 11-deoxycorticosterone); conditions: for sf: selectivity factor: IC50 (CYP11B2)/IC50 (CYP11B1): ratio IC50 (CYP11B2)/IC50 (CYP11B1); for pIC50: read-out: IC50 value CYP11B1, Hamster fibroblasts expressing human CYP11B1, substrate 11-deoxycorticosterone, 100 nM, mean of at least three experiments
human CYP11B2 = human CYP11B2 (Homo sapiens (Human), UniProt P19099); test: Cellular assay for CYP11B2 inhibition (V79MZh11B2 hamster fibroblasts, substrate 11-deoxycorticosterone); conditions: for pIC50: read-out: IC50 value CYP11B2, Hamster fibroblasts expressing human CYP11B2, 100 nM, mean of at least three experiments, n.i. = no inhibition at an inhibitor concentration of 500 nM
Chain of human CYP11B2 (P19099 25-503): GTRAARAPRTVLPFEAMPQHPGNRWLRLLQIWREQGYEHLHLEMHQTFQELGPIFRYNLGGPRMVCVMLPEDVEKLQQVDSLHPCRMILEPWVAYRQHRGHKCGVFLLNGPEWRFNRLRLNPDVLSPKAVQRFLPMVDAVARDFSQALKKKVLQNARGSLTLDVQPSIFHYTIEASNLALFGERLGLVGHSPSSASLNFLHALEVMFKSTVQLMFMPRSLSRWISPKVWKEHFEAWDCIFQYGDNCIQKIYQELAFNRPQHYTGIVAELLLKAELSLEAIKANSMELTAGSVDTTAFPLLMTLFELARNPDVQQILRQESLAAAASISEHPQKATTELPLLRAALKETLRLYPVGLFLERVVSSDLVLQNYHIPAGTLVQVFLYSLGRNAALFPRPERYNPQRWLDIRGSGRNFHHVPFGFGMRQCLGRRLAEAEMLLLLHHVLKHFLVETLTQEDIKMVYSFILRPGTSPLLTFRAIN

Chain of human CYP11B1 (P15538 25-503): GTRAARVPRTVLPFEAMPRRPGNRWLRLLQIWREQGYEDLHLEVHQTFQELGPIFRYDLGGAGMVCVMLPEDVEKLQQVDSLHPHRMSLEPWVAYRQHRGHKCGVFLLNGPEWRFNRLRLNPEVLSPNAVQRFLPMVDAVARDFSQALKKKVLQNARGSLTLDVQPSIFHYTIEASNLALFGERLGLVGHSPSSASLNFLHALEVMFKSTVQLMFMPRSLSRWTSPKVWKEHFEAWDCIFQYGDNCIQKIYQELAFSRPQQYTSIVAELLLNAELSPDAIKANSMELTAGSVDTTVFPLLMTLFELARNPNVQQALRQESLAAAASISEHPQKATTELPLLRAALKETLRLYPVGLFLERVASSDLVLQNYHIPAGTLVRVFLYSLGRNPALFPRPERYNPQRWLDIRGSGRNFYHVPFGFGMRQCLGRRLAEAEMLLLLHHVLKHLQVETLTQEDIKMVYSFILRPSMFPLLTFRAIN
Chain of Human placental CYP19 (P11511 whole entry): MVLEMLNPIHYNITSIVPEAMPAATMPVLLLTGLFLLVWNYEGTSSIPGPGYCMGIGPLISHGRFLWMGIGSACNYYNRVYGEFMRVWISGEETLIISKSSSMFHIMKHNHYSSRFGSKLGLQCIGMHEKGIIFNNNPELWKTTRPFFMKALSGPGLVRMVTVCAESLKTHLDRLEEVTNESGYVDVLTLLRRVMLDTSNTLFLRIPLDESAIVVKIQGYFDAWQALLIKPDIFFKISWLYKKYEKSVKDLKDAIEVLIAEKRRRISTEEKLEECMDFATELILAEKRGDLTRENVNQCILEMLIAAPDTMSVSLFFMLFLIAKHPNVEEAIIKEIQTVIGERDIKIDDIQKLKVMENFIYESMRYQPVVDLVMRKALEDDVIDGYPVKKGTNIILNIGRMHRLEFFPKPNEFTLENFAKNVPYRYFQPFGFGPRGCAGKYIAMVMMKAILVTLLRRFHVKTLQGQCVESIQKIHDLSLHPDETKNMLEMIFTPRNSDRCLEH
Chain of human CYP17 (P05093 whole entry): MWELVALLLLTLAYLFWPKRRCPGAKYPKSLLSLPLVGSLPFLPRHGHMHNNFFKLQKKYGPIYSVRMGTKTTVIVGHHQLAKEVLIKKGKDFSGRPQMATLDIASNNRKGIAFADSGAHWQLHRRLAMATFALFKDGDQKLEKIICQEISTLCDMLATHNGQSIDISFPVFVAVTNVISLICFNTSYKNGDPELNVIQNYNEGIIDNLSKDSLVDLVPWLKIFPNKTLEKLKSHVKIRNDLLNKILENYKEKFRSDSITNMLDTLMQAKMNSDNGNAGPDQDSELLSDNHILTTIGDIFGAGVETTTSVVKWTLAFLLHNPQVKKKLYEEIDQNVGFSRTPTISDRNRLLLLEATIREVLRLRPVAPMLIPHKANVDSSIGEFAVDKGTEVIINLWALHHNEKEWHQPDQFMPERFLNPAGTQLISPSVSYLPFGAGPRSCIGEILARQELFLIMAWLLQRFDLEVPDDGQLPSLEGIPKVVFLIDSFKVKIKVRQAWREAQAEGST

| SMILES | inhibition at 2 µM (human CYP17) | inhibition at 0.5 µM (Human placental CYP19) | sf: selectivity factor: IC50 (CYP11B2)/IC50 (CYP11B1) (human CYP11B1) | pIC50 (human CYP11B1) | pIC50 (human CYP11B2) | IC50 value CYP11B2 (human CYP11B2; Hamster fibroblasts expressing human CYP11B2, 100 nM, mean of at least three experiments, n.i. = no inhibition at an inhibitor concentration of 500 nM) | inhibition (%) CYP 17 (human CYP17) | inhibition (%) CYP 19 (Human placental CYP19) |
| --- | --- | --- | --- | --- | --- | --- | --- | --- |
| COc1ccccc1-c1ccc(Cn2ccnc2)cn1 [Compound 12, 5-Imidazol-1-ylmethyl-2-(2-methoxy-phenyl)pyridine] | 5% | 4% | 26 | 6.78 | 5.36 | – | – | – |
| Cc1ccc(-c2ccc(Cn3ccnc3)cn2)cc1N [Compound 18, 5-(5-Imidazol-1-ylmethyl-pyridin-2-yl)-2-methyl-phenylamine] | 3% | 0% | – | 6.27 | < 6.00 | – | – | – |
| c1ccc(N(c2ccccc2)c2ccc(-c3ccc(Cn4ccnc4)cn3)cc2)cc1 [Compound 22, [4-(5-Imidazol-1-ylmethyl-pyridin-2-yl)-phenyl]-diphenyl-amine] | 2% | 1% | – | 6.21 | – | n.i.^d | – | – |
| c1ccc2c(-c3ccc(Cn4ccnc4)cn3)cccc2c1 [Compound 23, 5-Imidazol-1-ylmethyl-2-naphthalen-1-yl-pyridine] | 8% | 5% | 49 | 7.38 | 5.68 | – | – | – |
| c1ccc(-c2cc(Cn3ccnc3)cnc2-c2ccccc2)cc1 [Compound 25, 5-Imidazol-1-ylmethyl-2,3-diphenyl-pyridine] | 3% | 0% | 2.4 | 6.44 | 6.07 | – | – | – |
| c1ccc(-c2cc(Cn3ccnc3)cnc2-c2ccccc2)cc1 [Compound 35, 5-Imidazol-1-ylmethyl-2,3-diphenyl-pyridine] | – | – | 6 | 7.14 | 6.38 | – | 5% | 30% |
| c1csc(-c2ncccc2Cn2ccnc2)c1 [Compound 36, 3-Imidazol-1-ylmethyl-2-thiophen-2-yl-pyridine] | 0% | 19% | 16 | 7.80 | 6.60 | – | – | – |
| c1ccc2c(-c3ccc(Cn4ccnc4)cn3)csc2c1 [Compound 38, 2-Benzo[b]thiophen-3-yl-5-imidazol-1-ylmethyl-pyridine] | 4% | 0% | 29 | 7.40 | 5.94 | – | – | – |
| c1coc(-c2cc(Cn3ccnc3)cnc2-c2ccco2)c1 [Compound 42, 2,3-Di-furan-2-yl-5-imidazol-1-ylmethyl-pyridine] | 6.7% | 2.2% | 29 | 7.54 | 6.08 | – | – | – |

Second part, the compound after the results:

| inhibition at 2 µM (human CYP17) | inhibition at 0.5 µM (Human placental CYP19) | sf: selectivity factor: IC50 (CYP11B2)/IC50 (CYP11B1) (human CYP11B1) | pIC50 (human CYP11B1) | pIC50 (human CYP11B2) | IC50 value CYP11B2 (human CYP11B2; Hamster fibroblasts expressing human CYP11B2, 100 nM, mean of at least three experiments, n.i. = no inhibition at an inhibitor concentration of 500 nM) | inhibition (%) CYP 17 (human CYP17) | inhibition (%) CYP 19 (Human placental CYP19) | SMILES |
| --- | --- | --- | --- | --- | --- | --- | --- | --- |
| 6% | 0% | 21 | 7.00 | 5.67 | – | – | – | Nc1ccccc1-c1ccc(Cn2ccnc2)cn1 [Compound 15, 2-(5-Imidazol-1-ylmethyl-pyridin-2-yl)-phenylamine] |
| 3% | 2% | 31 | 6.96 | 5.47 | – | – | – | Nc1cccc(-c2ccc(Cn3ccnc3)cn2)c1 [Compound 16, 3-(5-Imidazol-1-ylmethyl-pyridin-2-yl)-phenylamine] |
| 4% | 1% | 5 | 6.97 | 6.28 | – | – | – | Nc1ccc(-c2ccc(Cn3ccnc3)cn2)cc1 [Compound 17, 4-(5-Imidazol-1-ylmethyl-pyridin-2-yl)-phenylamine] |
| 8% | 3% | 17 | 7.12 | 5.91 | – | – | – | c1csc(-c2ccc(Cn3ccnc3)cn2)c1 [Compound 31, 5-Imidazol-1-ylmethyl-2-thiophen-2-yl-pyridine] |
| 3% | 0% | 26 | 6.90 | 5.49 | – | – | – | c1cn(Cc2ccc(-c3ccsc3)nc2)cn1 [Compound 32, 5-Imidazol-1-ylmethyl-2-thiophen-3-yl-pyridine] |
| 5% | 0% | 16 | 7.21 | 6.01 | – | – | – | O=Cc1ccc(-c2ccc(Cn3ccnc3)cn2)s1 [Compound 34, 5-(5-Imidazol-1-ylmethyl-pyridin-2-yl)-thiophene-2-carbaldehyde] |
| 1% | 0% | 31 | 6.78 | 5.29 | – | – | – | c1coc(-c2ccc(Cn3ccnc3)cn2)c1 [Compound 39, 2-Furan-2-yl-5-imidazol-1-ylmethyl-pyridine] |
| 8% | 0% | 37 | 7.12 | 5.55 | – | – | – | c1cn(Cc2ccc(-c3ccoc3)nc2)cn1 [Compound 40, 2-Furan-3-yl-5-imidazol-1-ylmethyl-pyridine] |
